The text below walks through data of PMC9258905, “Discovery of Quercetin and Its Analogs as Potent OXA-48 Beta-Lactamase Inhibitors” (Frontiers in Pharmacology, 2022).

Broadly, the inhibition is the percentage by which the read-out fell short of the control. Usually IC50 stands for the point on the concentration scale where inhibition reaches its midpoint. For orientation: LD50 means the dose expected to kill half of the subjects tested. A word on the Ki: it is a measure of affinity in units of concentration, obtained from inhibition or displacement. Read a high Ki as lower affinity.

In series [1] the target is T1, OXA-48 (Klebsiella pneumoniae, UniProt Q6XEC0).
T1 construct: made in house; host or cells: E. coli BL21(DE3)
The experiment in a line: Enzyme inhibition assay against purified OXA-48 with nitrocefin as substrate. The conditions noted are these: for inhibition at 50 µM / percent inhibition against OXA-48: nitrocefin substrate; for percent inhibition against OXA-48: 50 µM. It is filed as biochemical. As to the method: The inhibitory activity of compounds against the purified OXA-48 was tested on a BioTek HTS reader. The reactions were conducted in 0.1 M phosphate buffer (pH 7.0) supplemented with 50 mM NaHCO3 at 25°C with a final assay volume of 100 μL. The concentrations of enzyme and substrate were 12 nM and 200 μM, respectively. The initial reaction rates in the absence and presence of the compound were monitored at 495 nm in triplicate. The inhibitor concentration causing a 50% decrease in enzyme activity (IC50) was determined by plotting the percent inhibition against the log10 of the inhibitor concentration and fitting the data in a dose–response-inhibition model using GraphPad Prism 7.0.
Quercetin is a member of the flavonoid class with diverse structures obtained from nature, some of which have been used for the treatment of infectious diseases in traditional medical systems ([Farhadi et al., 2019]). To investigate whether quercetin and other flavonoids are OXA-48 inhibitors, the enzyme inhibition assays were conducted on a BioTek HTS reader using nitrocefin as a substrate. The concentrations of enzyme and substrate were 12 nM and 200 μM, respectively. The initial hydrolysis rate of nitrocefin was monitored at 495 nm. The percentage inhibition is defined as the enzyme activity in the absence of inhibitor (100%) minus the remaining activity in the presence of inhibitor.

Series [2] deals with E.coli BW25113 ∆acrA∆bamB (OXA-48). The format is cell-based. As to conditions: for reduction in the piperacillin MIC: compound at 64 μg/mL. As to the method: (§1) The recombinant plasmid containing the Pbla promoter and OXA-48 constructed above was then transformed into BW25113, BW25113 ∆acrA, BW25113 ∆bamB, and BW25113 ∆acrA∆bamB. The above strains were used to study the minimum inhibitory concentration (MIC). Antibiotic susceptibility tests were performed by the microdilution method following Clinical and Laboratory Standards Institute (CLSI) criteria ([CLSI, 2015]). Four E. coli strains expressing OXA-48 were used to assess the inhibitors. The susceptibility to piperacillin/imipenem combined with the compound at a concentration of 16 or 64 μg/mL was determined. […] Each measurement was conducted in triplicate. The fractional inhibitory concentration index (FICI) was determined according to the following formula: FICI = MIC (QT) in combination/MIC (QT) alone + MIC (PIP) in combination/MIC (PIP) alone. The drug interactions are defined as synergistic if the FICI is ≤0.5, indifferent if the FICI is >0.5 and ≤4.0, and antagonistic if the FICI is >4.0.
(§2) To investigate whether the compounds could restore the antimicrobial activity of β-lactam, the MICs of β-lactam antibiotics against resistant Gram-negative bacteria in the absence and presence of compounds (fisetin, 3′,4′,7-trihydroxyflavone, luteolin or quercetin) were determined by using published guidelines described by CLSI ([CLSI, 2015]). Specifically, we used OXA-48 producing strains E. coli BW25113, BW25113 ∆acrA, BW25113 ∆bamB, and BW25113 ∆acrA∆bamB as resistant Gram-negative bacteria. […] Imipenem, a carbapenem antibiotic, was applied at increasing concentrations ranging from 0.03 μg/mL to 4 μg/mL. The compounds were tested at 64 and 16 μg/mL.

The next series relates to mice. The conditions noted are these: ref Ardeshir et al., 2018; cited from earlier work.
Series [3] has as its target T1, OXA-48. The experiment in a line: Inhibition kinetics (Lineweaver-Burk plots) of OXA-48-catalyzed nitrocefin hydrolysis. It is filed as biochemical. As to the method:
The inhibition mode of quercetin and the inhibition constant (K i) were determined using a Lineweaver–Burk plot by fitting the initial rate versus the substrate concentration at each inhibitor concentration using SigmaPlot 12.0. The nitrocefin concentrations were 25, 50, 75, and 100 μM, respectively. The initial velocity was determined by measuring the […] as described above. All reaction rates were determined in triplicate.
To determine the inhibition mode of the flavonoids, the inhibition kinetics of quercetin, fisetin and luteolin against OXA-48 in the presence of different concentrations of substrate were determined, and the inhibition modes were determined by generating Lineweaver-Burk plots.

The subject of the next series is KPC-2. Also noted: method as in Papp-Wallace et al., 2010. The conditions noted are these: for KPC-2; ref Papp-Wallace et al., 2010; cited from earlier work.
Series [4] deals with E.coli BW25113 ∆bamB (OXA-48). It is filed as cell-based. Here is the method: as §1, §2
In series [5] the test system is E.coli BW25113 ∆acrA (OXA-48). It is filed as cell-based. As to the method:
as §1, §2

For a further series, the system named is E.coli BW25113 (OXA-48). The format is cell-based. As to the method: as §1, §2
For series [6], the system named is E. coli BW25113 ∆acrA∆bamB (OXA-48). The experiment in a line: Mouse systemic infection model. As to conditions: 10 mg/kg each, intravenous, 1 h post infection; organs 24 h post-infection; vs untreated group. The format is in vivo, Kunming mice.
[7] abbreviates: read-out: percent inhibition against OXA-48, at 50 μM compound.
Setting [8] is: purified OXA-48 12 nM, nitrocefin 200 μM, 0.1 M phosphate buffer pH 7.0, 50 mM NaHCO3, 25°C, read-out: IC50 against OXA-48.

Like-named read-outs stand apart in the source and are kept apart here.

T1 sequence (Q6XEC0 23-265 limits assumed): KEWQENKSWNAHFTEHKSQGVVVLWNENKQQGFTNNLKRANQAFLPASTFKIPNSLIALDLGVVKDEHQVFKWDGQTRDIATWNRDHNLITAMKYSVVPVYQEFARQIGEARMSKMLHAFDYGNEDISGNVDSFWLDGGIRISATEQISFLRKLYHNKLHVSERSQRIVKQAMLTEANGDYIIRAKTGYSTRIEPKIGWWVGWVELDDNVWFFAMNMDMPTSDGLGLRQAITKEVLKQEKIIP

With `O=C(O)[C@H]1O[C@@H](Oc2cc3oc(-c4ccccc4)cc(=O)c3c(O)c2O)[C@H](O)[C@@H](O)[C@@H]1O` [Baicalin], the inhibition at 50 µM on OXA-48 [1] (setting [7]) turned out to be 25%.

As to `O=c1cc(-c2ccc(O)c(O)c2)oc2cc(O)cc(O)c12` [Luteolin], the “reduction in the piperacillin MIC” value in series [2] turned out to be 4 fold. Besides, in series [2] (compound at a dose of 64 μg/mL), the “MIC decrease for imipenem” value came to 2 fold. Moreover, the “percent inhibition against OXA-48” value is on record as 81% at OXA-48 [1] (at 50 μM compound) and “more than 50%” on OXA-48 [1] (at 50 μM compound, listed as luteolin). Besides, at OXA-48 [1] (setting [8]), the IC50 turned out to be 0.55 ± 0.02 µM. Besides, the LD50 in the series with mice is 150 mg/kg. Besides, the inhibition mode result at OXA-48 [3] (Lineweaver-Burk plots, Km unchanged, Vmax decreased) was “noncompetitively inhibited”. The affinity on OXA-48 [3] (nitrocefin 25, 50, 75, 100 μM, Lineweaver-Burk), expressed as Ki, was 0.82 ± 0.05 µM.

As for `C[C@@H]1O[C@@H](OC[C@H]2O[C@@H](Oc3c(-c4ccc(O)c(O)c4)oc4cc(O)cc(O)c4c3=O)[C@H](O)[C@@H](O)[C@@H]2O)[C@H](O)[C@H](O)[C@H]1O` [Rutin], at OXA-48 [1] (at 50 μM compound), the “percent inhibition against OXA-48” value came out at 9%. Besides, the “inhibitory activity against OXA-48 (in words)” value on OXA-48 [1] (larger group at position 3) was “no inhibitory activity”.

In the case of `O=c1cc(-c2ccc(O)c(O)c2)oc2cc(O)ccc12` [3′,4′,7-trihydroxyflavone], the “reduction in the piperacillin MIC” value in series [2] came to 8 fold. Also, the IC50 at OXA-48 [1] amounted to 1.89 ± 0.11 µM. Also, the “percent inhibition against OXA-48” value on OXA-48 [1] (at 50 μM compound) is “more than 50%”; on OXA-48 [1] (at 50 μM compound, listed as 3',4',7-trihydroxyflavone) it was 80%.

For the compound `O=C1C[C@@H](c2ccc(O)cc2)Oc2cc(O)cc(O)c21` [Naringenin], at OXA-48 [1], it took 68.1 ± 4.12 µM to reach half-maximal inhibition (IC50). Further, on OXA-48 [1] (at 50 μM compound, read-out: percent inhibition against OXA-48), the inhibition at 50 µM was found to be 27%.

For `O=C(O)[C@H]1/C(=C/CO)O[C@@H]2CC(=O)N21` [clavulanic acid], the partition ratio with KPC-2 was 2,500.

As to `O=c1c(O)c(-c2ccccc2)oc2cc(O)cc(O)c12` [Galangin], the IC50 against OXA-48 [1] came to 216 ± 15 µM. Also, the “percent inhibition against OXA-48” value on OXA-48 [1] (at 50 μM compound) is 3%; on OXA-48 [1] (at 50 μM compound, listed as galangin), “less than 20%”.

On to `COc1ccc(-c2oc3c(CC=C(C)C)c(O[C@@H]4O[C@H](CO)[C@@H](O)[C@H](O)[C@H]4O)cc(O)c3c(=O)c2O[C@@H]2O[C@@H](C)[C@H](O)[C@@H](O)[C@H]2O)cc1` [Icariin], for which the “percent inhibition against OXA-48” value on OXA-48 [1] (at 50 μM compound) is 0.3%; at OXA-48 [1] (at 50 μM compound, listed as icarlin) it was “less than 20%”.

As to `O=c1c(O)c(-c2ccc(O)cc2)oc2cc(O)cc(O)c12` [Kaempferol], the IC50 on OXA-48 [1] was 4.54 ± 0.05 µM. Also, the “percent inhibition against OXA-48” value on OXA-48 [1] (at 50 μM compound) is reported as 76%; on OXA-48 [1] (at 50 μM compound, listed as kaempferol), “more than 50%”.

For `CCN1CCN(C(=O)N[C@@H](C(=O)N[C@@H]2C(=O)N3[C@@H]2SC(C)(C)[C@@H]3C(=O)O)c2ccccc2)C(=O)C1=O` [Piperacillin], the “increase in the piperacillin susceptibility” value in series [4] (deletion of bamB alone vs wild type) is given as 4 fold; in [2] (codeletion of bamB and acrA vs wild type), 8 fold. Also, the “Antibiotic MIC” value in series [4] (inhibitor at 16 mg/L) was 1024 µg/mL; in [4] (inhibitor at 64 mg/L), 1024 µg/mL; in series [5] (inhibitor at 16 mg/L), 4096 µg/mL; in [5] (inhibitor at 64 mg/L), 4096 µg/mL; in the series on E.coli BW25113 (OXA-48) (inhibitor at 16 mg/L), 4096 µg/mL; with E.coli BW25113 (OXA-48) (inhibitor at 64 mg/L) it was 4096 µg/mL. Moreover, the “Antibiotic MIC” value in series [2] (inhibitor at 16 mg/L) and in series [2] (inhibitor at 64 mg/L) was 512 µg/mL throughout. The “bacterial load in spleen and liver” value in series [6] was “did not show a significant reduction of bacterial load”.

In the case of `COc1ccc(-c2cc(=O)c3c(O)cc(O[C@@H]4O[C@H](CO[C@@H]5O[C@@H](C)[C@H](O)[C@@H](O)[C@H]5O)[C@@H](O)[C@H](O)[C@H]4O)cc3o2)cc1O` [Diosmin], the “percent inhibition against OXA-48” value at OXA-48 [1] (at 50 μM compound) worked out at 11%. On OXA-48 [1] (setting [7]), the inhibition at 50 µM was below 20%.

On to `O=c1c(O[C@@H]2O[C@H](CO)[C@@H](O)[C@H](O)[C@H]2O)c(-c2ccc(O)c(O)c2)oc2cc(O)cc(O)c12` [Isoquercitrin], for which, on OXA-48 [1] (at 50 μM compound), the “percent inhibition against OXA-48” value amounted to 61%. For the same compound, the IC50 at OXA-48 [1] (setting [8]) was 11.5 ± 1.22 µM. In addition, the inhibition at 50 µM at OXA-48 [1] (setting [7]) is above 50%.

For the compound `O=c1cc(-c2ccc(O)cc2)oc2cc(O)cc(O)c12` [Apigenin], the IC50 against OXA-48 [1] worked out at 3.64 ± 0.24 µM. The “percent inhibition against OXA-48” value at OXA-48 [1] (at 50 μM compound) is listed as 77%; at OXA-48 [1] (at 50 μM compound, listed as apigenin), “more than 50%”.

Regarding `O=C1c2c(O)cc(O)cc2OC(c2ccc(O)c(O)c2)C1O` (centres unmarked) [Taxifolin], at OXA-48 [1], the midpoint of inhibition, the IC50, lay at 3.22 ± 0.23 µM. In addition, the “percent inhibition against OXA-48” value at OXA-48 [1] (at 50 μM compound) is given as 76%.

As to `C[C@@H](O)[C@H]1C(=O)N2C(C(=O)O)=C(SCCN=CN)C[C@H]12` [Imipenem], the “Antibiotic MIC” value (in series [4] (inhibitor at 16 mg/L); in series [4] (inhibitor at 64 mg/L); in series [5] (inhibitor at 16 mg/L); in series [5] (inhibitor at 64 mg/L); in the series with E.coli BW25113 (OXA-48) (inhibitor at 16 mg/L); with E.coli BW25113 (OXA-48) (inhibitor at 64 mg/L)) was 4 µg/mL in each case. Moreover, the “Antibiotic MIC” value in [2] (inhibitor at 16 mg/L) and in series [2] (inhibitor at 64 mg/L) was 4 µg/mL throughout.

Regarding `O=c1cc(-c2ccccc2)oc2cc(O)cc(O)c12` [Chrysin], at OXA-48 [1], it took 108 ± 11 µM to reach half-maximal inhibition (IC50). Besides, the “percent inhibition against OXA-48” value on OXA-48 [1] (at 50 μM compound) is on record as 8%; on OXA-48 [1] (at 50 μM compound, listed as chrysin), “less than 20%”.

As for `COc1ccc(-c2cc(=O)c3c(OC)c(OC)c(OC)c(OC)c3o2)cc1` [Tangeretin], the inhibition at 50 µM on OXA-48 [1] (setting [7]) amounted to 7%.
